Several values for one entry are separate records, joined by “and”; a condition that tells them apart may be missing. Equal entries are not always repeated.
Legend:
[1] = system: human microvascular endothelial cells (DMVEC); assay: FACS analysis of adhesion molecule surface expression on DMVEC; format: cell-based; settings: IL-1β 5 ng/ml, 12 hr; 3 independent experiments
Method: Flow cytometry analysis of dermal microvascular cells (DMVEC) was performed essentially as described (Weber C. et al., 1995). Briefly, confluent DMVEC stimulated with IL-Iβ (5 ng/ml), or left untreated for 12 h, were trypsinized, reacted with IL-saturating concentrations of ICAM-1 mAb RR1/1 (kindly provided by Dr. R. Rothlein), E-selectin mAb, VCAM-1 mAb (both Serotec), or isotype control for 30 min on ice, stained with fluorescein isothiocyanate (FITC)-conjuzated goat anti-mouse IgG (Boehringer Mannheim), and analysed in a FACScan (Becton Dickinson). After correction for unspecific binding, data were expressed as specific mean log fluorescence intensity (sMFI) in channels.

[2] = system: MonoMac 6 cells on DMVEC; assay: Monocyte recruitment on microvascular endothelium under physiological flow (laminar flow assay); format: cell-based, human
Method: The interaction of monocytes with DMVEC was studied in laminar flow assays performed essentially as descried (Weber C. et al., 1997, Kukerti S. et al., 1997, Piali L. et al., 1998). Briefly, DMVEC were grown to confluence in 35 mm Petri dishes, and stimulated with IL-1β (5 ng/ml) or left untreated for 12 h. The plates were assembled as the lower wall m a parallel wall flow chamber and mounted on the stage of an Olympus IMT-2 inverted microscope with 20× and 40× phase contrast objectives. Monotypes (MonoMac 6 cells) were cultured as reported (Ziegler-Heitbrock H. W. L. et al., 1988, Weber C. et al., 1993) and resuspended at 10^6/ml in assay buffer (HBSS) containing 10 mM Hepes/pH 7.4 and 0.5% HAS. Shortly before assay, 1 mM Mg^2+and 1 mM Ca^2+ was added. The cell suspensions were kept in a heating block at 37° C. during the assay and were perfused into the flow chamber at a rate of 1.5 dyn/cm for 5 min. For inhibition experiments, monocytes were preincubated with Met-RANTES at different concentrations (0.01-1 μg/ml) for 30 min on ice. The number of firmly adherent cells after 5 rain was quantified in multiple fields (at least 5 per experiment) by analysis of images recorded with a long integration JVC 3CCD video camera and a JVC SR L 900 E video recorder, and were expressed as cells/mm^2. The type of adhesion analysed was restricted to primary, i.e. direct interactions of monocytes with endotbelium. As an inverse measure of firm arrest, the number of cells rolling at reduced velocity on endothelium was determined within the last 30 sec. of the 5 min intervals, and were assessed as the percentage of all interactions in the field. The number of cells spreading or transmigrating after 5 min intervals was determined in high power fields as described (Luscinskas F. W. et al., 1994), and expressed as percentage of cells firmly attached.
In an attempt to gain insight into potential mechanisms of action of Met-RANTES, we studied whether a blockade of RANTES receptors could inhibit the firm arrest and diapedesis of monocytes on microvascular endothelium. To this end, we used monocytic MonoMac 6 cells that show the adhesive characteristics and integrin repertoire of mature monocytes, and express several chemokine receptors including CCR1 (Erl W. et al., 1995). DMVEC were grown to confluence on Petri dishes which were either left unstimulated or were activated with IL-1β (5 ng/ml) for 12 h. […] Under such physiological flow conditions, MonoMac 6 cells undergo short periods of rolling, and the attachment of a proportion of cells can be readily converted into shear-resistant arrest. After 5 min of accumulation, the number of MonoMac 6 cells that had undergone firm adhesion to the endothelium was determined (FIG. 2(a)).

[3] = system: dermal microvascular endothelium (DMVEC); assay: In vitro RANTES binding assay on DMVEC (modified ELISA); design: species or system human
Method: The DMVEC were grown to confluency on coated 96 well flat bottom plates, The resultant endothelial monolayer was either left untreated or treated with various concentrations of IL-L1β (0.1 to 5 ng/ml) for 12 h. The RANTES binding assay was a modification of a previously described procedure (Pattison J. et al., 1994, Wiedermann C. J. et al., 1993). Horseradish, peroxidase (HRP) conjugated anti-human-RANTES monoclonal antibody VL1 (0.1 μg) was pre-incubated at 25° C. for 30 min with an excess of recombinant human RANTES (20 μg/ml) in DMVEC growth media (without supplements). The chemokine-antibody complex was added then used to assay the relative chemokine binding capacity of the microvascular endothelium. The endothelial monolayer was gently washed 1× with unsupplemented growth media (25° C.) and the chemokine-antibody complex was added and incubated at 25° C. for 30 min. The wells were then washed four times with media without sera at 25° C. […] The optical density at 406 nm of the plate was determined using an ELISA plate reader.
Since a reduction of monocyte infiltration into vascular luminal spaces represented a prominent feature of Met-RANTES treatment in both transplantation models, we set out to study potential mechanisms for this effect. […] Using an ELISA-like format, the capacity of DMVEC to bind the antigen-mAb complex as opposed to mAb alone was determined. […]

Row | Substance | ICAM-1 surface expression, SMFI [1] | spreading or transmigration of monocytes ([2]; after firm arrest, 5 min, IL-1β activated DMVEC) | firm adhesion of monocytic cells to unstimulated microvascular endothelium ([2]; endothelial cells pre-exposed to RANTES) | firm arrest and accumulation of monocytes on IL-1β-activated microvascular endothelium ([2]; endothelium pre-exposed to RANTES (10 ng/ml, 30 min), within 5 min) | fraction of monocytes rolling on the activated microvascular endothelium ([2]; inverse measure of firm arrest, IL-1β activated DMVEC) | RANTES binding to microvascular endothelium following prestimulation ([3]; prestimulation with proinflammatory cytokine (5 ng/ml, 12 hours)) | RANTES binding to microvascular endothelium without prestimulation ([3]; resting DMVEC, HRP-VL1 mAb/RANTES complex)
1 | IL-1β: proinflammatory cytokine purchased from Sigma, used to activate DMVEC | 502 channels and 592 channels and 432 channels | – | – | – | – | – | –
2 | RANTES: recombinant human C-C chemokine (regulated upon activation, normal T-cell expressed and secreted) | – | did not alter | no significant effect | markedly enhanced | reduced | greatly increased | could bind some RANTES protein
